Results from ChEMBL document CHEMBL5241093, “Recent advances in the design and discovery of synthetic tyrosinase inhibitors” (Eur J Med Chem, 2021).

Tests used:
Tyrosinase [1] = target: T1, Tyrosinase (Agaricus bisporus, UniProt O42713); assay: Inhibition of mushroom tyrosinase incubated for 20 mins by spectrophotometric assay
T1 sequence (O42713 whole entry): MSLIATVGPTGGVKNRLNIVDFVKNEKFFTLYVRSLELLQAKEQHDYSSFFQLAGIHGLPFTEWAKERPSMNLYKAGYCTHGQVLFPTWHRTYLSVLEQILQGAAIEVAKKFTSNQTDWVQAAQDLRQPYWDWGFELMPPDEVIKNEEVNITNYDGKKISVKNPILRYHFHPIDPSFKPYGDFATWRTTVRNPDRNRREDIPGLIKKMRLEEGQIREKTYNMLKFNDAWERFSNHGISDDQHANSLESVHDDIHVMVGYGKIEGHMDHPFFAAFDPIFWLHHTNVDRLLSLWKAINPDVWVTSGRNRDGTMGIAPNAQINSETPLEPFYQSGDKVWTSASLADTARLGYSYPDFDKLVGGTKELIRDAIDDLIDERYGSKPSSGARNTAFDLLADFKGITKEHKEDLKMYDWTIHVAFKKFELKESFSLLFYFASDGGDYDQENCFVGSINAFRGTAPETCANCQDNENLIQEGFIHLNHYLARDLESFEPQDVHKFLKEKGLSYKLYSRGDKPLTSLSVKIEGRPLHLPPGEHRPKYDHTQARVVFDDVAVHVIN

B16-F10 = assay: Inhibition of melanin production in mouse B16-F10 cells assessed reduction in melanin level measured after 72 hrs by ELISA assay relative to control; assay type: functional
Tyrosinase [2] = target: T1, Tyrosinase; assay: Inhibition of mushroom tyrosinase using L-dopa as substrate assessed as diphenolase activity preincubated for 20 mins followed by substrate addition measured after 10 mins by plate reader analysis
Tyrosinase [3] = target: T1, Tyrosinase; assay: Inhibition of mushroom tyrosinase using L-tyrosine as substrate assessed as monophenolase activity preincubated for 20 mins followed by substrate addition measured after 10 mins by plate reader analysis
Tyrosinase [4] = target: T1, Tyrosinase; assay: Inhibition of mushroom tyrosinase using L-tyrosine as substrate preincubated for 15 mins followed by substrate addition measured after 30 mins by plate reader analysis
Tyrosinase [5] = target: T1, Tyrosinase; assay: Inhibition of mushroom tyrosinase using L-DOPA as substrate incubated for 10 mins by spectrophotometric assay
Tyrosinase [6] = target: T1, Tyrosinase; assay: Inhibition of mushroom tyrosinase using L-tyrosine as a substrate incubated for 10 mins
Tyrosinase [7] = target: T1, Tyrosinase; assay: Inhibition of mushroom tyrosinase using L-dopa as substrate by spectrophotometric analysis
Tyrosinase [8] = target: T1, Tyrosinase; assay: Inhibition of mushroom tyrosinase using L-DOPA as substrate preincubated for 10 mins followed by substrate addition measured after 20 mins by microtitre plate reader analysis
Tyrosinase [9] = target: T1, Tyrosinase
Description: Inhibition of mushroom tyrosinase using L-DOPA as substrate assessed as inhibition constant preincubated for 15 mins followed by substrate addition measured after 2 mins by microtitre plate reader analysis

Tyrosinase [10] = target: T1, Tyrosinase; assay: Inhibition of mushroom tyrosinase using L-DOPA as substrate by HTS analysis
Tyrosinase [11] = target: T1, Tyrosinase; assay: Inhibition of mushroom tyrosinase using L-DOPA as substrate preincubated for 10 mins followed by substrate addition measured after 5 mins
Tyrosinase [12] = target: T1, Tyrosinase; assay: Inhibition of mushroom tyrosinase using L-DOPA as substrate preincubated for 10 mins followed by substrate addition measured after 20 mins
Tyrosinase [13] = target: T1, Tyrosinase; assay: Inhibition of mushroom tyrosinase using L-dopa as substrate incubated for 30 mins by spectrophotometric analysis
Tyrosinase [14] = target: T1, Tyrosinase; assay: Inhibition of mushroom tyrosinase using L-DOPA as substrate incubated for 30 mins
B16 = assay: Anti-melanoma activity against mouse B16 cells assessed as inhibition of tyrosinase activity incubated for 48 hrs by spectrophotometer analysis relative to control; assay type: functional
Tyrosinase [15] = target: T1, Tyrosinase; assay: Inhibition of mushroom tyrosinase using L-DOPA as substrate incubated for 20 mins by microplate reader analysis
[16] = Antioxidant activity assessed as DPPH radical scavenging activity incubated for 30 mins under dark condition by microplate reader analysis; assay type: functional
Tyrosinase [17] = target: T1, Tyrosinase; assay: Inhibition of mushroom tyrosinase using L-DOPA as substrate assessed as diphenolase activity
Tyrosinase [18] = target: T1, Tyrosinase; assay: Inhibition of mushroom tyrosinase using L-tyrosine as substrate assessed as monophenolase activity
Tyrosinase [19] = target: T1, Tyrosinase; assay: Inhibition of mushroom tyrosinase using L-dopa as substrate incubated for 30 mins by microplate reader analysis
Tyrosinase [20] = target: T1, Tyrosinase; assay: Inhibition of mushroom tyrosinase using L-DOPA as substrate incubated for 20 mins
Tyrosinase [21] = target: T1, Tyrosinase; assay: Inhibition of mushroom tyrosinase using L-dopa as substrate assessed as monophenolase activity by microplate reader analysis
Tyrosinase [22] = target: T1, Tyrosinase; assay: Inhibition of mushroom tyrosinase using L-tyrosine as substrate assessed as […] activity by microplate reader analysis

Question: With `O=C(/C=C/c1cccc(Cl)c1)NCCN1CCOCC1` as the molecule, how does the IC50 (Tyrosinase [1]) read?
Answer: 15.2 µM

Question: Which “inhibition (INH)” value (B16-F10) does the source give for `COc1ccc(-c2n[nH]c(S)n2)cc1` here?
Answer: 55%

Question: Which IC50 (Tyrosinase [2]) does the source give for `N/C(S)=N/N=C/c1ccc([N+](=O)[O-])cc1` here?
Answer: 1740 nM

Question: What about the IC50 (Tyrosinase [3]) of the same molecule?
Answer: 50 nM

Question: With `CCCCOC(=O)/C=C/c1ccc(O)cc1` as the molecule, how does the IC50 (Tyrosinase [4]) read?
Answer: 69 µM

Question: For `CCOC(OCC)c1ccc(/C=C2\CCC/C(=C\c3ccc(C(OCC)OCC)cc3)C2=O)cc1`, which IC50 (Tyrosinase [5]) is on record?
Answer: 10.1 µM

Question: For `CCOC(OCC)c1ccc(/C=C2\Cc3ccccc3C2=O)cc1`, which IC50 (Tyrosinase [5]) is on record?
Answer: 6.83 µM

Question: For `CCOC(OCC)c1ccc(/C=C/C(=O)C2CCc3ccccc3C2=O)cc1` (stereo not drawn), which IC50 (Tyrosinase [5]) is on record?
Answer: 5.84 µM

Question: For `O=C(O)CSc1nnc(NC(=S)Nc2cccc(C(F)(F)F)c2)s1`, which IC50 (Tyrosinase [6]) is on record?
Answer: 15 µM

Question: With `O=C1CSC(c2ccccc2O)N1c1ccc(-c2ccc(N3C(=O)CSC3c3ccccc3O)cc2)cc1` (stereo not drawn) as the molecule, how does the IC50 (Tyrosinase [7]) read?
Answer: 610 nM

Question: Which IC50 (Tyrosinase [8]) does the source give for `COc1cc(C2CC(c3cc4ccccc4oc3=O)=NN2c2nc(-c3ccc(Br)cc3)cs2)ccc1OCc1ccccc1` (stereo not drawn) here?
Answer: < 100 nM

Question: With `CCn1c2ccccc2c2cc(NC(=O)CSc3nc4ccccc4[nH]3)ccc21` as the molecule, how does the Ki (Tyrosinase [9]) read?
Answer: 1640 nM

Question: For `CC(C)C(=O)Nc1nc(-c2ccc(O)cc2O)cs1`, which IC50 (Tyrosinase [10]) is on record?
Answer: 108 µM

Question: With `Clc1ccc(Cn2cc(COc3ccc(-c4nc5ccccc5[nH]4)cc3)nn2)cc1Cl` as the molecule, how does the IC50 (Tyrosinase [11]) read?
Answer: 9.42 µM

Question: For `Cc1ccc(C(C)C)cc1NC(=O)COC(=O)c1ccc(O)cc1O`, which IC50 (Tyrosinase [12]) is on record?
Answer: 11 µM

Question: Which IC50 (Tyrosinase [13]) does the source give for `COc1cc([N+](=O)[O-])ccc1/C=C/C(=N\O)c1cc2ccccc2cc1O` here?
Answer: 4.77 µM

Question: With `O=C(COC(=O)c1ccc(O)cc1O)Oc1ccc2oc(=O)ccc2c1` as the molecule, how does the IC50 (Tyrosinase [14]) read?
Answer: 8.96 µM

Question: With `CC(=O)Nc1ccc(/N=N/c2c(N)nc(N)nc2Cl)cc1` as the molecule, how does the IC50 (Tyrosinase [11]) read?
Answer: 24.4 µM

Question: With `CC(=O)OC[C@H]1O[C@@H](Oc2ccc(O)cc2)[C@H](O)[C@@H](O)[C@@H]1O` as the molecule, how does the “inhibition (INH)” value (B16) read?
Answer: 71.4%

Question: Which IC50 (Tyrosinase [15]) does the source give for `Cc1cc(OCc2cn(Cc3ccc(F)cc3)nn2)c(C=C2C(=O)NC(=S)NC2=O)cc1Br` here?
Answer: 24.6 µM

Question: And the EC50 [16]?
Answer: 39.2 µM

Question: Which results are given for `O=C(OCc1cc(=O)c(O)c[nH]1)[C@H](Cc1ccccc1)NCc1ccccc1`?
Answer: IC50 (Tyrosinase [17]): 8.97 µM; IC50 (Tyrosinase [18]): 1950 nM

Question: Which IC50 (Tyrosinase [19]) does the source give for `O=C1/C(=C/c2ccc(O)c(Br)c2)CSc2ccccc21` here?
Answer: 4.1 µM

Question: With `OCC1CSC(c2ccc(O)cc2O)S1` (stereo not drawn) as the molecule, how does the IC50 (Tyrosinase [19]) read?
Answer: 13.9 µM

Question: With `COc1cc(/C=N/NC(=O)c2ccc(O)c(OC)c2)ccc1O` as the molecule, how does the IC50 (Tyrosinase [20]) read?
Answer: 10 µM

Question: For `COc1ccccc1/C=C/C=N/Nc1nnc(SCc2cc(=O)c(O)co2)n1C`, which IC50 (Tyrosinase [21]) is on record?
Answer: 20.5 µM

Question: What about the IC50 (Tyrosinase [22]) of the same molecule?
Answer: 7.5 µM
